Several values for one entry are separate records, joined by “and”; a condition that tells them apart may be missing. Equal entries are not always repeated.
Key:
[1] = molecular target: T1, Somatostatin receptor type 5 (Rattus norvegicus, UniProt P30938)
T1 sequence (P30938 whole entry): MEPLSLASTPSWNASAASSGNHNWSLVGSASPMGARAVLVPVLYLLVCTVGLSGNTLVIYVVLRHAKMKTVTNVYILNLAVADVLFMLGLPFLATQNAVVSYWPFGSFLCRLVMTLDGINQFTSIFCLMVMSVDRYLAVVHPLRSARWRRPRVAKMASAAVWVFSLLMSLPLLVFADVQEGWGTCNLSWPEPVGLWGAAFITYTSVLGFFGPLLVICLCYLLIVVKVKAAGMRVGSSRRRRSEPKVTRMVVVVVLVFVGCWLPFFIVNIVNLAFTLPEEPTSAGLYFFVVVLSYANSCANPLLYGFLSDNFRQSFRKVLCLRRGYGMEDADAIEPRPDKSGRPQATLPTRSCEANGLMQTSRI

[2] = molecular target: Somatostatin receptor type 3 (Rattus norvegicus, UniProt P30936)
[3] = molecular target: Somatostatin receptor type 2 (Rattus norvegicus, UniProt P30680)
[4] = molecular target: Somatostatin receptor type 1 (Rattus norvegicus, UniProt P28646)
Sequence of Somatostatin receptor type 1 (P28646 whole entry): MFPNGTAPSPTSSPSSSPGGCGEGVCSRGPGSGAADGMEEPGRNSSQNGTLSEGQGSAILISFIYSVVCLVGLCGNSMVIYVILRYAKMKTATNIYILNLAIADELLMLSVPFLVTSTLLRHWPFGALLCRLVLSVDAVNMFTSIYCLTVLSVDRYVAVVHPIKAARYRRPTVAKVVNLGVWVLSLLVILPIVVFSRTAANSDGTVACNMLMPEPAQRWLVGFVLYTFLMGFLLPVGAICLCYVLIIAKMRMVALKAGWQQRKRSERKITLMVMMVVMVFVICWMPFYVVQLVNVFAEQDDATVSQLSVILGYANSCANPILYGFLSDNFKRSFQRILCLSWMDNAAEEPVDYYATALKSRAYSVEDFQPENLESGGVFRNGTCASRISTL

Sequence of Somatostatin receptor type 2 (P30680 whole entry): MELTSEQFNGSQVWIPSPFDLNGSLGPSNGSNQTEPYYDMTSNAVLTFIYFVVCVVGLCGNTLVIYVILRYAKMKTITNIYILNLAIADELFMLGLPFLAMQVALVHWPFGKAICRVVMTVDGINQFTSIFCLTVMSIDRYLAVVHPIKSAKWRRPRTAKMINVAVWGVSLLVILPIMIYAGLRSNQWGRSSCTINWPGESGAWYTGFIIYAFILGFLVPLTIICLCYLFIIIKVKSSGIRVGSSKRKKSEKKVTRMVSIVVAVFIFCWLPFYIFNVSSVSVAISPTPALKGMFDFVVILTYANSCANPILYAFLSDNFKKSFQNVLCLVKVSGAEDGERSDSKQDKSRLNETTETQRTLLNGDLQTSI
Sequence of Somatostatin receptor type 3 (P30936 whole entry): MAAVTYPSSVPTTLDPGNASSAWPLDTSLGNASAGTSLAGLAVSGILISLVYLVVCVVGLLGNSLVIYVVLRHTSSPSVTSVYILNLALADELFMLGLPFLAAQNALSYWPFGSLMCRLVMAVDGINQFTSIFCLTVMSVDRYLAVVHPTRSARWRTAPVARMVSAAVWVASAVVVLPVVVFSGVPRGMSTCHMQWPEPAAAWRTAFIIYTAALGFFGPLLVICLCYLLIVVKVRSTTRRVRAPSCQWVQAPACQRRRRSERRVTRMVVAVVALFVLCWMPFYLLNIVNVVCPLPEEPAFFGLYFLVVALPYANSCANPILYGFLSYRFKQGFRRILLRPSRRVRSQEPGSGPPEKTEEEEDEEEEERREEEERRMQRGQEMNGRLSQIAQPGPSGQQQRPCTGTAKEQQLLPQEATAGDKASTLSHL

Row | Ki [1] | Ki [2] | Ki [3] | Ki [4] | Compound
1 | 2.2 nM | – | – | – | CC(=O)N[C@H](Cc1ccc([N+](=O)[O-])cc1)C(=O)N[C@H]1CSSC[C@H](C(=O)N[C@@H](C(N)=O)[C@H](C)O)NC(=O)[C@@H](C(C)C)NC(=O)[C@H](CCCCN)NC(=O)[C@@H](Cc2c[nH]c3ccccc23)NC(=O)[C@H](Cc2ccc(O)cc2)NC1=O [AcNH-4-NO2-Phe-c[Cys-Tyr-D-Trp-Lys-Thr-Cys]-Tyr-NH2]
2 | 2.5 nM | – | – | – | CC(=O)N[C@H](Cc1ccc([N+](=O)[O-])cc1)C(=O)N[C@@H]1CSSC[C@H](C(=O)N[C@@H](C(N)=O)[C@H](C)O)NC(=O)[C@@H](C(C)C)NC(=O)[C@H](CCCCN)NC(=O)[C@@H](Cc2c[nH]c3ccccc23)NC(=O)[C@H](Cc2ccc(O)cc2)NC1=O [AcNH-4-NO2-Phe-c[D-Cys-Tyr-D-Trp-Lys-Thr-Cys]-Tyr-NH2]
3 | 18.1 nM | – | – | – | CC(C)[C@H]1NC(=O)[C@H](CCCCN)NC(=O)[C@@H](Cc2c[nH]c3ccccc23)NC(=O)[C@H](Cc2ccc(O)cc2)NC(=O)[C@H](NC(=O)[C@@H](N)Cc2ccc([N+](=O)[O-])cc2)CSSC[C@H](C(=O)N[C@@H](C(N)=O)[C@H](C)O)NC1=O [H2N-4-NO2-Phe-c[D-Cys-Tyr-D-Trp-Lys-Val-Cys]-Tyr-Nh2]

Continued, compound first:

Row | Compound | Ki [1] | Ki [2] | Ki [3] | Ki [4]
4 | C[C@H](N)C(=O)NCC(=O)N[C@@H]1CSSC[C@@H](C(=O)O)NC(=O)[C@H](CO)NC(=O)[C@@H]([C@@H](C)O)NC(=O)[C@H](Cc2ccccc2)NC(=O)[C@@H]([C@@H](C)O)NC(=O)[C@H](CCCCN)NC(=O)[C@@H](Cc2c[nH]c3ccccc23)NC(=O)[C@H](Cc2ccccc2)NC(=O)[C@@H](Cc2ccccc2)NC(=O)[C@H](CC(N)=O)NC(=O)[C@@H](CCCCN)NC1=O | 5 nM | – | – | –
5 | CC(=O)N[C@@H](Cc1ccc([N+](=O)[O-])cc1)C(=O)N[C@H]1CSSC[C@@H](C(=O)N[C@@H](Cc2ccc(O)cc2)C(N)=O)NC(=O)[C@H]([C@@H](C)O)NC(=O)[C@H](CCCCN)NC(=O)[C@@H](Cc2c[nH]c3ccccc23)NC(=O)[C@H](Cc2ccc(O)cc2)NC1=O [AcNH-4-NO2-Phe-c[Cys-Tyr-D-Trp-Lys-Thr-Cys]-Tyr-NH2] | – | 1000 nM | 0.1 nM | –
6 | CC(=O)N[C@@H](Cc1ccc([N+](=O)[O-])cc1)C(=O)N[C@@H]1CSSC[C@@H](C(=O)N[C@@H](Cc2ccc(O)cc2)C(N)=O)NC(=O)[C@H]([C@@H](C)O)NC(=O)[C@H](CCCCN)NC(=O)[C@@H](Cc2c[nH]c3ccccc23)NC(=O)[C@H](Cc2ccc(O)cc2)NC1=O [AcNH-4-NO2-Phe-c[D-Cys-Tyr-D-Trp-Lys-Thr-Cys]-Tyr-NH2] | – | 100 nM | 0.3 nM | 1000 nM
7 | CC(C)[C@@H]1NC(=O)[C@H](CCCCN)NC(=O)[C@@H](Cc2c[nH]c3ccccc23)NC(=O)[C@H](Cc2ccc(O)cc2)NC(=O)[C@@H](NC(=O)[C@@H](N)Cc2ccc([N+](=O)[O-])cc2)CSSC[C@@H](C(=O)N[C@@H](Cc2ccc(O)cc2)C(N)=O)NC1=O [H2N-4-NO2-Phe-c[Cys-Tyr-D-Trp-Lys-Val-Cys]-Tyr-Nh2] | – | 300 nM | 0.2 nM | 1000 nM
8 | CC(C)[C@H]1NC(=O)[C@H](CCCCN)NC(=O)[C@@H](Cc2c[nH]c3ccccc23)NC(=O)[C@H](Cc2ccc(O)cc2)NC(=O)[C@@H](NC(=O)[C@@H](N)Cc2ccc([N+](=O)[O-])cc2)CSSC[C@H](C(=O)N[C@@H](C(N)=O)[C@H](C)O)NC1=O [H2N-4-NO2-Phe-c[Cys-Tyr-D-Trp-Lys-Val-Cys]-Tyr-Nh2] | 0.1 nM and 0.42 nM | – | – | –
9 | CC(C)[C@@H]1NC(=O)[C@H](CCCCN)NC(=O)[C@@H](Cc2c[nH]c3ccccc23)NC(=O)[C@H](Cc2ccc(O)cc2)NC(=O)[C@H](NC(=O)[C@@H](N)Cc2ccc([N+](=O)[O-])cc2)CSSC[C@@H](C(=O)N[C@@H](Cc2ccc(O)cc2)C(N)=O)NC1=O [H2N-4-NO2-Phe-c[D-Cys-Tyr-D-Trp-Lys-Val-Cys]-Tyr-Nh2] | – | 1000 nM | 12.9 nM | 1000 nM

Source: BindingDB's records for PubMed 8863814 (Cyenamid Agricultural Research Center, 1996)
